The test system of series [1] is sol elastase activity of CF sputum. The settings on record: unprocessed CF sputum directly treated; cited from earlier work.
Series [2] has as its system bleomycin-induced lung fibrosis. The experiment in a line: Bleomycin induced IPF mouse model, Example 1 (oral nintedanib or fluconazole). Format: in vivo, C57BL/6 mice. The settings on record: nintedanib 60 mg/kg. The procedure: Forty male C57BL/6 mice (Nanjing Biomedical Research Institute of Nanjing University) were randomly divided into two groups on Day 1, 10 animals for one group (referred to as Control group or Group 1) and 30 for the other. The animals in the Control group were administered intratracheally with PBS at a dose of 2 mL/kg while the others were administered intratracheally with bleomycin (Cat #HY-17565, MCE) at a dose of 0.66 mg/kg.
(§1) On Day 5, the mice with bleomycin treatment were divided into three groups at random (referred to as Group 2-4, n=10), and orally administered with vehicle (0.5% Methyl cellulose), nintedanib (Kangmanlin Co. Ltd., prepared in 0.5% Methyl cellulose with a final concentration of 6.0 mg/mL) and fluconazole (Kangmanlin Co. Ltd., prepared in 0.5% Methyl cellulose with a final concentration of 7.0 mg/mL) at daily doses of 10 mL/kg, 60 mg/kg and 70 mg/kg, respectively. The mice in the Control group was administered with vehicle (0.5% Methyl cellulose) at a daily dose of 10 mL/kg. Mice body weights were measured and recorded on Day 1, 5, 12, 19 and 25.
(§2) Two hours post drug administration on Day 25, all animals were anaesthetized with pentobarbital (i.p., 65 mg/kg). Blood samples were collected from orbital vein, put in tubes pre-coated with EDTA-K2 (KANG JIAN, Cat #KJ202), centrifuged at 4000×g for 10 minutes at 4° C. and then stored at −80° C. for determination of plasma drug levels. Then, the trachea was exposed, and bronchoalveolar lavage fluid (BALF) was collected from each mouse by injecting 0.3 mL of saline into trachea close to the larynx for three times. After BALF collection, mice were perfused with saline, and all four lung lobes were collected from each mouse, fixed in 10% NBF solution, embedded in paraffin and cut into 5 μm-thick sections. The sections were de-paraffinized with xylene and ethanol and subject to Haematoxylin-Eosin, Masson Trichrome and α-SMA IHC staining.
The bronchoalveolar lavage fluid of 20 μL was mixed with 20 μL of trypan blue to determine the cell number. Then, the cells in the BALF were concentrated using a Cytospinat at 1,000 rpm for 5 minutes, smeared on slides and then stained with Diff-Quik stain. Cell types (alveolar macrophages, neutrophils, or lymphocytes) were determined by counting at least 200 cells using a standard hemocytometer. The rest BALFs were centrifuged and supernatants were collected and stored at −80° C. for soluble collagen analysis.
The Haematoxylin-Eosin staining was used to identify and quantitate the inflammatory cells in the tissues, and the total inflammation area was calculated using the AperioScanScope software.
The sections with Masson Trichrome staining were scored for pulmonary fibrosis according to the modified Ashcroft fibrosis rating criteria in Table 1 below. Each lung lobe was divided into 4 parts according to the distance from the main bronchus, i.e., the upper, upper middle, lower middle and lower parts, which were scored separately and averaged later.
α-SMA is a well characterized marker in fibrosis. Immunohistochemistry staining of α-SMA is often used to characterize and quantitate the tissue fibrosis. Increased staining of α-SMA often reflects accumulation of collagen-producing myofibroblasts. Before α-SMA IHC staining, the de-paraffinized sections were treated with citrate antigen retrieval solution (0.01 N citrate buffer, pH 6.0) at 100° C. for 10 minutes, and then incubated with rabbit polyclonal anti-α-SMA (1:400, ab5694, Abcam) for 1 hour followed by goat anti-rabbit HRP (K4003, Dako). DAB substrate kit (DAB0031, Maixin, Shanghai) was used for chromogenic staining. All sections were further counter-stained with hematoxylin. […] α-SMA staining areas were calculated using the AperioImageScope program.
Statistical analysis was performed using student's T-test, one-way or two-way ANOVA followed by post-hoc Dunnett's test if significant. […] The difference was considered significant when p<0.05. *p<0.05, **p<0.01, ***[…].

Details of series [3]: species or system C57BL/6 mice. The following applies: C57BL/6, mouse, in vivo, 2 h. The procedure: as §1
as §2, with “The sections were de-paraffinized with xylene and ethanol and subject to Haematoxylin-Eosin, Masson Trichrome and α-SMA IHC staining.” left out

Series [4] is described as follows: Plasma drug levels, Example 2. The following applies: C57BL/6, mouse. Format: in vivo, C57BL/6 mice. On the procedure:
On Day 5, the mice with bleomycin treatment were divided into four groups at random (referred to as Group 2-5, n=10), and orally administered with vehicle (DMSO: PEG400=1:9, V/V), itraconazole (Kangmanlin Co. Ltd. prepared in DMSO/PEG400 with a final concentration of 1.5 mg/mL), nintedanib (Kangmanlin Co. Ltd., prepared in DMSO/PEG400 with a final concentration of 6.0 mg/mL), and itraconazole+nintedanib (prepared in DMSO/PEG400 with final concentrations of 1.5 mg/mL and 6.0 mg/mL) at daily doses of 10 mL/kg, 15 mg/kg, 60 mg/kg and 15+60 mg/kg, respectively. The mice in the Control group was administered with vehicle (DMSO/PEG400) at a daily dose of 10 mL/kg. Mice body weights were measured and recorded on Day 1, 5, 12, 19 and 21.
Two hours post drug administration on Day 21, all animals were anaesthetized with pentobarbital (i.p., 60 mg/kg). Blood sample, bronchoalveolar lavage fluid (BALF) and lung lobes were collected from each mouse and then processed following the protocols in Example 1.

The nature of series [5]: Drug concentrations in plasma and lung tissues after 5 days of oral or inhalation dosing. The format is in vivo, healthy male mice. The settings on record: male, mouse; for Kp at 2 h: lung tissue and plasma, read-out: levels in lung tissues relative to plasma; for concentration at 2 h: q.d., 5 days, two hours after last dose. On the procedure:
In a separate experiment, three groups of healthy male mice were treated with itraconazole for 5 consecutive days. Animals in Group A were orally administered with itraconazole in DMSO:PEG400 (1:9, v/v) at a daily dose of 15 mg/kg, while mice in Group B and C were subject to 3-min inhalation treatment of itraconazole of 15 mg/mL and 50 mg/mL, respectively. Two hours after the last dose, plasma samples and lung tissues were collected as described above. These samples were sent to an independent bioanalytical service lab to determine the levels of itraconazole, and results were summarized in Table 3.

The nature of series [6]: Plasma exposure levels in the bleomycin-induced lung fibrosis mouse study. The format is in vivo. The source says:
Because the relevancy to human efficacy in bleomycin-induced lung fibrosis mouse model, though well established in preclinical studies (Moeller, 2008), has not been established, a new version of the bleomycin-induced lung fibrosis mouse study protocol was designed, with marketed anti-fibrotic drugs, namely pirfenidone and nintedanib, as positive controls.

For series [7] the following is noted: cited from earlier work.
For series [8] the following is noted: cited from earlier work. The source holds these as a separate data set.
For series [9] the following is noted: mice, cited from earlier work.

“Also recorded” adds a separate entry of the source. Where two headings read alike, the source gives them in different places.

As for DNase, the “increase of sol elastase activity” value in [1] is given as 190%.
Regarding `OC(Cn1cncn1)(Cn1cncn1)c1ccc(F)cc1F` [fluconazole], in series [2] (Haematoxylin-Eosin staining, fluconazole 70 mg/kg p.o. daily), the “reduction of lung inflammation area” value was “not observed”. In addition, the “reduction of modified Ashcroft score” value in series [2] (Masson Trichrome staining, fluconazole 70 mg/kg p.o. daily) is reported as “not observed”. Also, the “anti-IPF activities / fibrosis related endpoint measurements (overall)” value in series [2] (fluconazole 70 mg/kg daily dose) is listed as “did not show detectable changes; also recorded: failed to show any significant anti-IPF activities”. Moreover, in [2] (oral daily Day 5-25, fluconazole 70 mg/kg, vs bleomycin + vehicle), the BALF collagen levels result is given as “No collagen level reduction”. The “reduction of α-SMA staining area” value in series [2] (α-SMA IHC, fluconazole 70 mg/kg p.o. daily) is given as “not observed”. For the same molecule, in series [3], the “plasma level relative to that of itraconazole at 15 mg/kg” value is on record as “over 62 fold”.
One may read the solubility as the concentration that dissolves in the medium under given conditions. For orientation: Cmax means the highest concentration seen after dosing. In the case of `CCC(C)n1ncn(-c2ccc(N3CCN(c4ccc(OCC5COC(Cn6cncn6)(c6ccc(Cl)cc6Cl)O5)cc4)CC3)cc2)c1=O` (centres unmarked) [itraconazole], the concentration at 2 h in [4] (oral, Day 21, itraconazole 15 mg/kg, nintedanib 60 mg/kg p.o. daily, read-out: two-hour post dosing plasma level, single agent) is 700 ng/mL; in series [4] (po, Day 21, 15+60 mg/kg p.o. daily, read-out: two-hour post dosing plasma drug level, itraconazole and nintedanib combined in administration), 518 ng/mL; in series [5] (lung tissue, inhaled, Group B: i.h., 15 mg/mL for 3 min, read-out: Lung Tissue Concentrations), 590 ng/mL; in series [5] (lung tissue, inhaled, Group C: i.h., 50 mg/mL for 3 min, read-out: Lung Tissue Concentrations), 1400 ng/mL; in series [5] (lung tissue, po, Group A: p.o., 15 mg/kg, read-out: Lung Tissue Concentrations), 172 ng/mL; in series [5] (plasma, inhaled, Group B: i.h., 15 mg/mL for 3 min, read-out: Plasma Concentrations) it was 80.9 ng/mL. The concentration at 2 h in series [5] (plasma, inhaled, Group C: i.h., 50 mg/mL for 3 min, read-out: Plasma Concentrations) is 168 ng/mL; in series [5] (plasma, po, Group A: p.o., 15 mg/kg, read-out: Plasma Concentrations), 133 ng/mL. Also, the Kp at 2 h was approximately 7.3 in series [5] (inhaled, 5 days of inhalation at 15 mg/mL for 3 min); 8.3 in series [5] (inhaled, inhalation dose of 50 mg/mL for 3 min); approximately 1.3 in series [5] (5 days of oral dosing at 15 mg/kg). Moreover, the plasma exposure level is 394 ± 66 ng/mL in [6] (itraconazole alone at 7.5 mg/kg) and 899 ± 192 ng/mL in [6] (itraconazole alone at 15 mg/kg). Also, the figures for the solubility in [7] (in 0.1N HCl) and in series [7] (in water) were 4 to 6 µg/mL and 0.001 to 0.004 µg/mL, respectively. In addition, the “Cmax at steady state” value was 2000 ng/mL in series [8] (200 mg (PO/BID)) and 1100 ng/mL in series [8] (200 mg (PO/QD)). The “time to steady state plasma levels” value in series [8] (post oral administration, multiple dosing) was “around 15 days”. In series [8] (post oral dose), the “time at which peak plasma levels are reached” value is 2 to 5 h. Also, the “serum levels relative to pulmonary concentrations” value in series [9] (aerosolized dose) is on record as 25 to 50 times lower. Further, the “time to effective anti-fungal pulmonary concentrations” value in series [9] (after completion of nebulization) is on record as not above 60 min.

B1: reduced rhTrx: stable reduced form of recombinant human thioredoxin (protein, UniProt P10599 2-105, looked up)
Thioredoxin: VKQIESKTAFQEALDAAGDKLVVVDFSATWCGPCKMIKPFFHSLSEKYSNVIFLEVDVDDCQDVASECEVKCMPTFQFFKKGQKVGEFSGANKEKLEATINELV
modifications: reduced form
As for B1, in [1], the “increase of sol elastase activity” value is listed as 60%.

Values taken from US12569482B2, “Methods and compositions for treating idiopathic pulmonary fibrosis” (priority 2018, dated 2026).
